Laboratory results: US10183032B2, “Methods for treating bacterial infection” (Ball State Innovation Corporation, priority 2012, dated 2019)

Assays:
actin stress fibers = experiment: Actin stress fiber depolymerization in HUVEC during S. aureus infection; format: cell-based, human; conditions: 18-20 h pretreatment, S. aureus 1 h
Experimental: (§1) FIG. 8A is an image depicting ML 141 limiting actin stress fiber depolymerization during infection. Human umbilical vein endothelial cells (HUVEC) were incubated with ML 141 or with the vehicle control polyethylene glycol (PEG) 18-20 h prior to infection with Staphylococcus aureus (1 h). Actin was detected using Alexa Fluor 488 phalloidin. Arrows indicate intact actin stress fibers. Arrowhead indicates cell lacking actin stress fibers. 100 cells/treatment were evaluated from randomly selected fields. Data are presented as the % of cells in which actin stress fibers were not detected. Scale bar is 50 μm.
as §1, with “8B” for “8A”, “RSM 06” for “ML 141”, “200” for “Arrows indicate intact actin stress fibers. Arrowhead indicates cell lacking actin stress fibers. 100”
as §1, with “8C” for “8A”, “RSM 16” for “ML 141”, “200” for “Arrows indicate intact actin stress fibers. Arrowhead indicates cell lacking actin stress fibers. 100”
HUVEC are plated at 1×10^5 cells/ml into 35 mm glass-bottom dishes (MatTek, Ashland, Mass.) are coated with Attachment Factor, are pretreated, and are infected (1.2×10^8 CFU) as described above. […] Alexa 488 is excited by the 488 nanommeter Ar laser line and is detected using a 505-530 nanometer bandpass filter. […] Maximum pixel projections from the Z-stacks are generated and are analyzed for actin morphology.

[1] = test system: Human umbilical vein endothelial cells; experiment: Cytotoxicity by propidium iodide exclusion, HUVEC; format: cell-based; conditions: HUVEC pretreated 18-20 h
CDC42 = CDC42 (Homo sapiens, UniProt P60953); experiment: BODIPY-FL-GTP binding to CDC42
Staphylococcus aureus [2] = experiment: Staphylococcus aureus host cell invasion assay in HUVEC, flow cytometry; format: cell-based; conditions: HUVEC; for inhibition of invasion compared with ML 141 (Table 1): 10 μM, flow cytometry; for activity at 10 µM: Staphylococcus aureus, 1 h, read-out: Internalized bacteria (% control ± SEM), Structural analog
Experimental: In one embodiment, human umbilical vein endothelial cells (HUVEC, Life Technologies) are cultured in M200 medium supplemented with LSGS. RAW 264.7 cells (American Type Culture Collection, ATCC, Manassas, Va.) are cultured in RPMI supplemented with 10% FBS and L-glutamine. All cell types are maintained at 5% CO2, 37° C., in 75 cm^2 vented cap flasks (Thermo-Fisher). For assays, cultured cells are plated at 1×10^5 cells/ml in 35 mm culture dishes coated with Attachment Factor. The next day, cells are pretreated in culture medium containing the vehicle control or ML 141. For compound delivery, ML 141 first is suspended into DMSO or into PEG at a concentration of 5 mM. The 5 mM solution is diluted to 1 mM in the solvent and then diluted to the final concentration for each experiment in either serum-containing or serum-free medium. For vehicle control treatment, the same volume of PEG or DMSO as that of ML 141 is added to medium. The following day, the invasion assay is performed. For the shorter duration experiments, compound is added on the same day as the invasion assay, 1 hour prior to bacteria.
In another embodiment, HUVEC (Millipore, Billerica, Mass.) are cultured in EndoGRO LS Complete Media (Millipore) and are maintained at 5% CO2, 37° C., in 75 cm^2 vented cap flasks (Thermo-Fisher). For the invasion assay, cultured cells are plated at 1×10^4 cells/ml in 96-well culture dishes coated with Attachment Factor. The next day, cells are pretreated in culture medium containing the vehicle control, ML 141, or ML 141 structural analog. For compound delivery, ML 141 and structural analogs first are suspended into PEG at a concentration of 5 mM. The 5 mM solution is diluted to 1 mM in the solvent and then is diluted to the final concentration for each experiment in serum containing medium. For vehicle control treatment, the same volume of PEG as that of ML 141 or of ML 141 structural analog is added to the medium. The following day, the invasion assay is performed. Bacteria are added directly to medium containing vehicle control, ML 141, or the ML 141 structural analog.
Two days prior to the assay, TSB is inoculated with S. aureus (American Type Culture Collection #29213) and incubated overnight (225 rpm, 37° C.). Bacteria are subcultured the next day into fresh TSB. On the day of the assay, bacteria are pelleted (10000×g, 37° C., 3 min), are washed in saline, are pelleted as above, are resuspended in saline, then fluorescently labeled by incubation with rabbit anti-mouse IgG Alexa Fluor 488 (final concentration 8 μg/ml, RT, 20 min). Protein A, a S. aureus cell surface protein, avidly binds IgG thereby labeling the bacteria. Labeled bacteria are washed twice as above and are resuspended to 3×10^8 CFU/ml in saline. Host cells are incubated with the bacteria for 1 hour (1.2×10^8 CFU/ml for same-day recovery, 5×10^6 for recovery after 48 hours, 1.4×10^7 CFU/ml; 5% CO2, 37° C.). Following infection, extracellular bacteria are removed by extensive washes with PBS and incubation of the host cells with antimicrobials that have limited mammalian membrane permeability (lysostaphin, 20 μg/ml and gentamicin, 50 μg/ml; 45 min for same-day recovery studies, 48 hours for 2-day recovery studies; 5% CO2, 37° C.). To detect the level of infection using flow cytometry, cells that have been infected with fluorescently-labeled bacteria are washed extensively with PBS, lifted from 96-well plate by incubation with trypsin, washed extensively in FACS buffer (2% BSA/0.1% sodium azide/PBS), fixed (FACS buffer containing 0.74% formaldehyde), and are counted using an Accuri flow cytometer (BD, Franklin Lakes, N.J.). They are also lifted from culture dishes using cell scrapers, pelleted, fixed (1% BSA/0.74% formaldehyde/PBS), and are counted using an Accuri flow cytometer. For enumeration of the infecting bacteria, intracellular bacteria are released from host cells using 1% saponin/PBS (20 min, 5% CO2, 37° C.) and serial dilutions are plated on TSA (16 hours, 37° C.). […]

Staphylococcus aureus [3] = experiment: Assessment of bactericidal activity (HUVEC media); format: cell-based; conditions: 1.2 × 10^8 CFU S. aureus, 1 h in HUVEC media; 10 μM
Experimental: FIG. 6B illustrates that neither cytotoxicity nor bactericidal activity is detected. Cultures of Staphylococcus aureus that had been incubated with the vehicle control DMSO or with ML 141 (1 hour, 37° C., 225 rpm) were serially diluted, plated onto blood agar, and incubated (18 hours, 37° C.). Colonies were enumerated and colony forming units (CFU)/ml determined. CFU/ml were not different amongst the groups (p>0.05 by t-test; n=2/treatment). […]

CDC42, sequence (P60953 whole entry): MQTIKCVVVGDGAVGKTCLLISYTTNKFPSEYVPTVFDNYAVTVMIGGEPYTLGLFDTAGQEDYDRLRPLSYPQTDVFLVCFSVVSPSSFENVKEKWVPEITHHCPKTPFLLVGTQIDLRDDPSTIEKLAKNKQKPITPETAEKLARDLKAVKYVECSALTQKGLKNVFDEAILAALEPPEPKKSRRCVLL

SMILES	depolymerization of actin stress fibers during infection (actin stress fibers)	Mean fluorescence intensity (×10^4 ± SEM), Compound (10 μM) [1]	IC50 (CDC42) [µM]	inhibition of invasion compared with ML 141 (Table 1) (Staphylococcus aureus [2])	activity at 10 µM (Staphylococcus aureus [2]) [%]	CFU (×10^8 ± SEM), Compound (10 μM) (Staphylococcus aureus [3])
COc1ccc(C2=NN(c3ccc(S(N)(=O)=O)cc3)C(c3ccc4c(c3)OCO4)C2)cc1 (stereo not drawn) [RSM 06]	limited actin depolymerization	2.8 ± 0.1 ×10^4	10.1	inhibited invasion more than ML 141	23 ± 1	4.9 ± 1.6 ×10^8 CFU
COc1ccc(C2=NN(c3ccc(S(N)(=O)=O)cc3)C(c3ccc(OC)c(OC)c3)C2)cc1 (stereo not drawn) [RSM 16]	limited actin depolymerization	1.4 ± 0.2 ×10^4	3.7	inhibited invasion more than ML 141	63 ± 4	8.9 ± 1.9 ×10^8 CFU
